Laboratory results reported in US7855290B2, “Pyridine derivatives and pyrimidine derivatives (3)” (Eisai R&D Management Co., Ltd., priority 2005, dated 2010).

How the values were obtained:
[1] = test system: Human gastric cancer cells (MKN-45); assay: Inhibitory activity against the proliferation of human gastric cancer cells (MKN-45); assay type: cell-based; settings: 72 h, MKN-45, 1% FBS RPMI1640, 3 days, Cell Counting Kit-8
Outline: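 MKN-45 cells seeded overnight in RPMI1640 with 1% FBS, then exposed to compound for 3 days at 37° C, 5% CO2. Viability read with CCK-8 after about 1.5 hrs, absorbance at 450 nm (reference 660 nm).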

HGFR = target: T1, HGFR (Homo sapiens, UniProt P08581); assay: Inhibitory activity against the HGFR autophosphorylation using ELISA (MKN-45 cells); assay type: cell-based; settings: 1 hr with test substance
T1 construct: endogenous in cells; host or cells: MKN-45 human gastric cancer cells
Outline: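 MKN-45 gastric cancer cells, plated overnight in 1% FBS RPMI1640, treated with compound 1 h at 37° C and lysed. Lysate captured on anti-phosphotyrosine (PY20) plates, probed with anti-HGFR then HRP anti-rabbit IgG; TMB absorbance at 450 nm. Activity expressed as % of untreated extract (100%) versus lysis buffer blank (0%).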

T1 sequence (P08581 25-1390): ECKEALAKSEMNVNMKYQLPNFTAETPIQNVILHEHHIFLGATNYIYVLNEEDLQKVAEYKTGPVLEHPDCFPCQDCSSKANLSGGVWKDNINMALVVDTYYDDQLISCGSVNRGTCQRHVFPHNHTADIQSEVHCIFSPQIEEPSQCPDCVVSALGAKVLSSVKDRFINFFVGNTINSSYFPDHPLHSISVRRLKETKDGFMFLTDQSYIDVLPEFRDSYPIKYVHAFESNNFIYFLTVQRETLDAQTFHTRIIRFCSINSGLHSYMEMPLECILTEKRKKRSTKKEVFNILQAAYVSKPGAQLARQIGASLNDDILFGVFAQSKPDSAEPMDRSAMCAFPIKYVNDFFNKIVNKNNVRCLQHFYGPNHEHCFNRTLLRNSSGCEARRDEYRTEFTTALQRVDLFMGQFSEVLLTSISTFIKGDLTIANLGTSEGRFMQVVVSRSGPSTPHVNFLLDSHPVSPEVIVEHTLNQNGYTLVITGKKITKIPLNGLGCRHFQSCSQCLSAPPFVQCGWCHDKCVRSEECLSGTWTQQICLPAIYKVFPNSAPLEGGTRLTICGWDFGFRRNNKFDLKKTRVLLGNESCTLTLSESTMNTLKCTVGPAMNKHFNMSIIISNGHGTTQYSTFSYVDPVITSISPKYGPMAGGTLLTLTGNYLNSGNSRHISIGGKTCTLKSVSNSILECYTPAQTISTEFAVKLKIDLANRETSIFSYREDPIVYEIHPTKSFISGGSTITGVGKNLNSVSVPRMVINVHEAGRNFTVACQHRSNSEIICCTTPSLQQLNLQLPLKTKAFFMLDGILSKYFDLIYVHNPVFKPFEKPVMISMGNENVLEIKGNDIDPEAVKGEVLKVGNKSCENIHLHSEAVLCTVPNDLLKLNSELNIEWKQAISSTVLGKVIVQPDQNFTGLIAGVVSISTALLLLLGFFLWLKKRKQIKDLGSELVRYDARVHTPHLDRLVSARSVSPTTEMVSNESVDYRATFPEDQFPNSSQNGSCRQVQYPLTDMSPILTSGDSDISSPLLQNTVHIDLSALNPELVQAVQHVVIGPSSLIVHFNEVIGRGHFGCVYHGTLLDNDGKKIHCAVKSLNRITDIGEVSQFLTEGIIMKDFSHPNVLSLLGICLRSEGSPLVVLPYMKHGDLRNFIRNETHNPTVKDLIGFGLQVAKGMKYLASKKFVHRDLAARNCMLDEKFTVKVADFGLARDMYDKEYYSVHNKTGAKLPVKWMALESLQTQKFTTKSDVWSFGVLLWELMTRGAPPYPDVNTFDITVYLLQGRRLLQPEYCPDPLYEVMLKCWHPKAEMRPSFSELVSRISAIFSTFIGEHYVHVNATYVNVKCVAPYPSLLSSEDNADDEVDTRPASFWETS

| SMILES | IC50 [1] | IC50 (HGFR) |
| --- | --- | --- |
| O=C(Nc1cc(Oc2cc(F)c(NC(=O)C3(C(=O)Nc4ccc(F)cc4)CC3)cc2F)ccn1)N1CC(CO)C1 [Example 96, N-(2,5-Difluoro-4-{[2-({[3-(hydroxymethyl)azetidin-1-yl]carbonyl}amino)pyridin-4-yl]oxy}phenyl)-N′-(4-fluorophenyl)cyclopropane-1,1-dicarboxamide] | 3.8 nM | 4.2 nM |
| O=C(Nc1cc(Oc2ccc(NC(=O)C3(C(=O)Nc4ccc(F)cc4)CC3)c(F)c2)ccn1)N1CCC(CO)CC1 [Example 83, N-(2-Fluoro-4-{[2-({[4-(hydroxymethyl)piperidin-1-yl]carbonyl}amino)pyridin-4-yl]oxy}phenyl)-N′-(4-fluorophenyl)cyclopropane-1,1-dicarboxamide] | 16 nM | 18 nM |
| O=C(Nc1cc(Oc2cc(F)c(NC(=O)C3(C(=O)Nc4ccc(F)cc4)CC3)cc2F)ncn1)N1CC(O)C1 [Example 97, N-{2,5-Difluoro-4-[(4-{[(3-hydroxyazetidin-1-yl)carbonyl]amino}pyrimidin-6-yl)oxy]phenyl}-N′-(4-fluorophenyl)cyclopropane-1,1-dicarboxamide] | 38 nM | 14 nM |
| O=C(Nc1cc(Oc2ccc(NC(=O)C3(C(=O)Nc4ccc(F)cc4)CC3)c(F)c2)ccn1)N1CC[C@H](O)C1 [Example 89, N-(2-Fluoro-4-{[2-({[(3S)-3-hydroxypyrrolidin-1-yl]carbonyl}amino)pyridin-4-yl]oxy}phenyl)-N′-(4-fluorophenyl)cyclopropane-1,1-dicarboxamide] | 18 nM | 17 nM |
| O=C(Nc1cc(Oc2cc(F)c(NC(=O)C3(C(=O)Nc4ccc(F)cc4)CC3)cc2F)ccn1)N1CC(CN2CCC2)C1 [Example 95, N-{4-[(2-{[3-(Azetidin-1-ylmethyl)azetidin-1-ylcarbonyl]amino}pyridin-4-yl)oxy]-2,5-difluorophenyl}-N′-(4-fluorophenyl)cyclopropane-1,1-dicarboxamide] | 5.4 nM | 13 nM |
| O=C(Nc1cc(Oc2cc(F)c(NC(=O)C3(C(=O)Nc4ccc(F)cc4)CC3)cc2F)ccn1)N1CCC1 [Example 90, N-[4-({2-[(Azetidin-1-ylcarbonyl)amino]pyridin-4-yl}oxy)-2,5-difluorophenyl]-N′-(4-fluorophenyl)cyclopropane-1,1-dicarboxamide] | 5 nM | 11 nM |
| CN(C)CC1CN(C(=O)Nc2cc(Oc3cc(F)c(NC(=O)C4(C(=O)Nc5ccc(F)cc5)CC4)cc3F)ccn2)C1 [Example 93, N-[2,5-Difluoro-4-({2-[({3-[(dimethylamino)methyl]azetidin-1-yl]carbonyl)amino]pyridin-4-yl}oxy)phenyl]-N′-(4-fluorophenyl)cyclopropane-1,1-dicarboxamide] | 5.2 nM | 7 nM |
| O=C(Nc1cc(Oc2ccc(NC(=O)C3(C(=O)Nc4ccc(F)cc4)CC3)cc2F)ccn1)N1CC(CO)C1 [Example 81, N-(3-Fluoro-4-{[2-({[3-(hydroxymethyl)azetidin-1-yl]carbonyl}amino)pyridin-4-yl]oxy}phenyl)-N′-(4-fluorophenyl)cyclopropane-1,1-dicarboxamide] | 17 nM | 7 nM |
| O=C(Nc1cc(Oc2ccc(NC(=O)C3(C(=O)Nc4ccc(F)cc4)CC3)cc2F)ccn1)N1CCC(CO)CC1 [Example 85, N-(3-Fluoro-4-{[2-({[-4-(hydroxymethyl)piperidin-1-yl]carbonyl}amino)pyridin-4-yl]oxy}phenyl)-N′-(4-fluorophenyl)cyclopropane-1,1-dicarboxamide] | 15 nM | 14 nM |
| CN1CCN(C2CCN(C(=O)Nc3cc(Oc4cc(F)c(NC(=O)C5(C(=O)Nc6ccc(F)cc6)CC5)cc4F)ccn3)CC2)CC1 [Example 92, N-(2,5-Difluoro-4-{[2-({[4-(4-methylpiperazin-1-yl)piperidin-1-yl]carbonyl}amino)pyridin-4-yl]oxy}phenyl)-N′-(4-fluorophenyl)cyclopropane-1,1-dicarboxamide] | 4.9 nM | 13 nM |
| O=C(Nc1cc(Oc2ccc(NC(=O)C3(C(=O)Nc4ccc(F)cc4)CC3)c(F)c2)ccn1)N1CCC(O)CC1 [Example 82, N-[2-Fluoro-4-[(2-{[(4-hydroxypiperidin-1-yl)carbonyl]amino}pyridin-4-yl)oxy]phenyl}-N′-(4-fluorophenyl)cyclopropane-1,1-dicarboxamide] | 21 nM | 22 nM |
| CN(C)CC1CN(C(=O)Nc2cc(Oc3cc(F)c(NC(=O)C4(C(=O)Nc5ccc(F)cc5)CC4)cc3F)ncn2)C1 [Example 98, N-[4-({4-[({3-[(Dimethylamino)methyl]azetidin-1-yl}carbonyl)amino]pyrimidin-6-yl}oxy)-2,5-difluorophenyl]-N′-(4-fluorophenyl)cyclopropane-1,1-dicarboxamide] | 23 nM | 17 nM |
| O=C(Nc1cc(Oc2ccc(NC(=O)C3(C(=O)Nc4ccc(F)cc4)CC3)cc2F)ccn1)N1CC[C@@H](O)C1 [Example 86, N-(3-Fluoro-4-{[2-({[(3R)-3-hydroxypyrrolidin-1-yl]carbonyl}amino)pyridin-4-yl]oxy}phenyl)-N′-(4-fluorophenyl)cyclopropane-1,1-dicarboxamide] | 15 nM | 11 nM |
| CN(C)CC1CCN(C(=O)Nc2cc(Oc3ccc(NC(=O)C4(C(=O)Nc5ccc(F)cc5)CC4)cc3F)ccn2)CC1 [Example 5, N-[4-({2-[({4-[(Dimethylamino)methyl]piperidin-1-yl}carbonyl)amino]pyridin-4-yl}oxy)-3-fluorophenyl]-N′-(4-fluorophenyl)cyclopropane-1,1-dicarboxamide] | 19 nM | 22 nM |
| O=C(Nc1cc(Oc2ccc(NC(=O)C3(C(=O)Nc4ccc(F)cc4)CC3)cc2F)ccn1)N1CC[C@H](O)C1 [Example 88, N-(3-Fluoro-4-{[2-({[(3S)-3-hydroxypyrrolidin-1-yl]carbonyl}amino)pyridin-4-yl]oxy}phenyl)-N′-(4-fluorophenyl)cyclopropane-1,1-dicarboxamide] | 18 nM | 20 nM |
| O=C(Nc1cc(Oc2ccc(NC(=O)C3(C(=O)Nc4ccc(F)cc4)CC3)c(F)c2)ccn1)N1CC[C@@H](O)C1 [Example 87, N-(2-Fluoro-4-{[2-({[(3R)-3-hydroxypyrrolidin-1-yl]carbonyl}amino)pyridin-4-yl]oxy}phenyl)-N′-(4-fluorophenyl)cyclopropane-1,1-dicarboxamide] | 14 nM | 12 nM |
| O=C(Nc1cc(Oc2ccc(NC(=O)C3(C(=O)Nc4ccc(F)cc4)CC3)cc2F)ccn1)N1CCC(O)CC1 [Example 84, N-[3-Fluoro-4-[(2-{[(4-hydroxypiperidin-1-yl)carbonyl]amino}pyridin-4-yl)oxy]phenyl}-N′-(4-fluorophenyl)cyclopropane-1,1-dicarboxamide] | 19 nM | 17 nM |
